Reference: patent US20130252837A1, “METHOD FOR MEASURING RESISTANCE OR SENSITIVITY TO DOCETAXEL” (Sanofi US, priority 2004, published 2013)

System: caspase-3
Experiment: active caspase-3 levels, beadmates kit / Luminex
Assay type: cell-based, human
Details: 40 nM docetaxel, 48 hours, control siRNA cells
Excerpt: Docetaxel can cause cell death through induction of apoptosis (Kim et al., Int J Mol Med 11:799, 2003). To determine whether Pim-1 and BubR1 siRNAs could modulate a canonical apoptotic pathway in the absence and presence docetaxel, we studied activated caspase-3 levels in HCT116 cells (using a bioplex assay) (FIG. 14).
In an attempt to define the molecular basis for enhanced cell death associated with a Pim-1 knockdown, we examined the activation state of a key cellular pathway involved in cell survival, AKT. HCT116 were seeded at 4×10^5 cells/well on 6-well plates and the next day transfected with siRNAs at 16 nM using Lipofectamine 2000 (Invitrogen). After 24 hours, cells were untreated or treated with 5 and 40 nM docetaxel. Cells were lysed 24, 48 and 72 hours after docetaxel addition with ice-cold lysis buffer (50 mM HEPES buffer (PH7.4), 1% NP40, 2.5 mM EDTA, 100 mM sodium fluoride, 10 mM sodium PPI, protease inhibitor cocktail tablet (Roche), 2 mM sodium orthovanadate) and centrifuged at 12,000 g for 10 minutes. Lysates were then quantified for total protein levels using DC protein assay (BioRad).

## CC(=O)O[C@@]12CO[C@@H]1C[C@H](O)[C@@]1(C)C(=O)[C@H](O)C3=C(C)[C@@H](OC(=O)[C@H](O)[C@@H](NC(=O)OC(C)(C)C)c4ccccc4)C[C@@](O)([C@@H](OC(=O)c4ccccc4)[C@H]21)C3(C)C [docetaxel]
  caspase-3 activity in control cells: induced
